# Results from patent US4163799A, “Psychostimulant compounds” (Union Chimique Continentale U.C.C., priority 1975, dated 1979).
# Where a name gives a salt, the structure may show the parent alone.
# Experiments:
# [1] = Determination of acute toxicity in the mouse (LD50, Behrens and Karber method); set-up: species or system mouse (male, Swiss NMRI); conditions: in vivo
# Description: (§1) All the experiments described below were carried out on male rats weighing between 170 and 220 g (Wistar AF strain) and male mice weighing between 18 and 23 g (Swiss NMRI strain), unless indicated to the contrary. All the experiments were conducted in a constant-temperature laboratory (22±1° C.). […] Unless indicated to the contrary 10 animals per batch were always used.
# [2] = Conditioned-inhibition test (four-plate test); format: in vivo, mouse (male, Swiss NMRI); conditions: 4, 8, 16, 32 and 64 mg/kg
# Description: as §1
# A simple conditioned-inhibition test was used, namely the four-plate test (Neuropharmacology, Aron et al, 1971, 10, 459-470).
# [3] = Motor activity in the mouse (photoelectric cell actimeter); format: in vivo, mouse (male, Swiss NMRI)
# Description: as §1
# The motor activity was determined with the aid of photoelectric cell actimeters (Boissier and Simon, Arch. int. Pharmacodyn. 1965, 158, 212-221). Twelve animals per batch were always used as a minimum.
# [4] = Modification of hypnotic effects (pentobarbital), mouse; format: in vivo, mouse (male, Swiss NMRI); conditions: 16, 32, 64 mg/kg orally, with or 60 minutes before pentobarbital
# Description: as §1
# [5] = Interaction with convulsants: electric shock; format: in vivo, mouse (male, Swiss NMRI); conditions: 4, 16, 64 mg/kg orally 60 minutes before electric shock
# Description: as §1
# [6] = 64 mg/kg IP, ** significant at 0.005
smiles,measurement,setting,value
"CC(O)CC(c1ccccc1)C(C(=O)O)c1ccccc1 (centres unmarked) [NaAHDH, Sodium Salt of 5-Hydroxy-2,3-Diphenyl-Hexanoic Acid]",LD50,"[1]; ip, intraperitoneally",175 mg/kg
same,LD50,"[1]; po, administered orally",998 mg/kg
same,animals' performance in four-plate test,[2],slight in increase in the animals' performance
same,modification of conditioned inhibition,[2],no modification of conditioned inhibition
same,"number of beams interrupted, 30 + 5 min",[3]; 16 mg/kg IP,44
same,"number of beams interrupted, 30 + 10 min",[3]; 16 mg/kg IP,90
same,"number of beams interrupted, 30 + 15 min",[3]; 16 mg/kg IP,133
same,"number of beams interrupted, 30 + 20 min",[3]; 16 mg/kg IP,163
same,"number of beams interrupted, 30 + 25 min",[3]; 16 mg/kg IP,195
same,"number of beams interrupted, 30 + 30 min","[3]; 16 mg/kg IP, * significant at 0.05",214 ± 28
same,"number of beams interrupted, 30 min",[3]; 16 mg/kg IP,376 ± 31
same,"number of beams interrupted, 30 + 5 min",[3]; 32 mg/kg IP,65
same,"number of beams interrupted, 30 + 10 min",[3]; 32 mg/kg IP,118
same,"number of beams interrupted, 30 + 15 min",[3]; 32 mg/kg IP,183
same,"number of beams interrupted, 30 + 20 min",[3]; 32 mg/kg IP,242
same,"number of beams interrupted, 30 + 25 min",[3]; 32 mg/kg IP,285
same,"number of beams interrupted, 30 + 30 min","[3]; 32 mg/kg IP, test t 2,395",325 ± 26
same,"number of beams interrupted, 30 min",[3]; 32 mg/kg IP,450 ± 39
same,"number of beams interrupted, 30 + 5 min",[3]; 64 mg/kg IP,90
same,"number of beams interrupted, 30 + 10 min",[3]; 64 mg/kg IP,195
same,"number of beams interrupted, 30 + 15 min",[3]; 64 mg/kg IP,297
same,"number of beams interrupted, 30 + 20 min",[3]; 64 mg/kg IP,396
same,"number of beams interrupted, 30 + 25 min",[3]; 64 mg/kg IP,429
same,"number of beams interrupted, 30 + 30 min",[3]; [6],558 ± 56
same,"number of beams interrupted, 30 min",[3]; [6],580 ± 47
same,motor activity,"[3]; 32 and 64 mg/kg ip, significant for the first 30 minutes, regular and constant up to 60th minute",increase in motor activity
same,time taken to fall asleep or length of sleep,[4],no modification to the time taken to fall asleep or the length of sleep
same,duration or appearance of the convulsions,[5],modified neither the duration nor appearance of the convulsions
same,motility after the convulsion,[5],no increase in motility after the convulsion
